{"source": "patent US9073940B2", "about": "“Tricyclic pyrazol amine derivatives” (MERCK SERONO SA, priority 2009, dated 2015)", "test_system": "4 PI3K isoforms (Human recombinant GST-PI3K)", "test": "PI3K scintillation proximity assay, best IC50 obtained with the four isoforms (alpha, beta, delta, gamma)", "type": "biochemical", "settings": "best IC50 obtained with the four isoforms of PI3K; read-out: Best potency measured on the 4 PI3K isoforms", "data": [{"compound": "COC1CCN(CCN2CCC[C@H](n3nc(C(=O)N4CCOCC4)c4c3-c3ccc(F)cc3S(=O)(=O)C4)C2)CC1", "note": "(stereo in doubt) [Example 474, 7-fluoro-1-{1-[2-(4-methoxypiperidin-1-yl)ethyl]piperidin-3-yl}-3-(morpholin-4-ylcarbonyl)-1,4-dihydrothiochromeno[4,3-c]pyrazole 5,5-dioxide]", "values": [{"measurement": "IC50", "value": 13, "unit": "nM"}]}, {"compound": "COc1cccc2c1S(=O)(=O)Cc1c(C(=O)N3CCOCC3)nn(C)c1-2", "note": "[Example 2, 6-methoxy-1-methyl-3-(morpholin-4-ylcarbonyl)-1,4-dihydrothiochromeno[4,3-c]pyrazole 5,5-dioxide]", "values": [{"measurement": "IC50", "value": 1730, "unit": "nM"}]}, {"compound": "O=C(c1n[nH]c2c1CS(=O)(=O)c1ccccc1-2)N1CCOCC1", "note": "[Example 3, 3-(morpholin-4-ylcarbonyl)-2,4-dihydrothiochromeno[4,3-c]pyrazole 5,5-dioxide]", "values": [{"measurement": "IC50", "value": 2880, "unit": "nM"}]}, {"compound": "COc1ccc2c(c1)S(=O)(=O)Cc1c(C(=O)N3CCOCC3)nn(C)c1-2", "note": "[Example 4, 7-methoxy-1-methyl-3-(morpholin-4-ylcarbonyl)-1,4-dihydrothiochromeno[4,3-c]pyrazole 5,5-dioxide]", "values": [{"measurement": "IC50", "value": 422, "unit": "nM"}]}, {"compound": "COc1ccc2c(c1)S(=O)(=O)Cc1c(C(=O)N3CCOCC3)nn(-c3ccccc3)c1-2", "note": "[Example 5, 7-methoxy-3-(morpholin-4-ylcarbonyl)-1-phenyl-1,4-dihydrothiochromeno[4,3-c]pyrazole 5,5-dioxide]", "values": [{"measurement": "IC50", "value": 349, "unit": "nM"}]}, {"compound": "Cc1cccc(-n2nc(C(=O)N3CCOCC3)c3c2-c2ccccc2S(=O)(=O)C3)c1", "note": "[Example 6, 1-(3-methylphenyl)-3-(morpholin-4-ylcarbonyl)-1,4-dihydrothiochromeno[4,3-c]pyrazole 5,5-dioxide]", "values": [{"measurement": "IC50", "value": 926, "unit": "nM"}]}, {"compound": "Cc1ccc(F)cc1-n1nc(C(=O)N2CCOCC2)c2c1-c1ccccc1S(=O)(=O)C2", "note": "[Example 8, 1-(5-fluoro-2-methylphenyl)-3-(morpholin-4-ylcarbonyl)-1,4-dihydrothiochromeno[4,3-c]pyrazole 5,5-dioxide]", "values": [{"measurement": "IC50", "value": 4200, "unit": "nM"}]}, {"compound": "COc1cccc(-n2nc(C(=O)N3CCOCC3)c3c2-c2ccccc2S(=O)(=O)C3)c1", "note": "[Example 9, 1-(3-methoxyphenyl)-3-(morpholin-4-ylcarbonyl)-1,4-dihydrothiochromeno[4,3-c]pyrazole 5,5-dioxide]", "values": [{"measurement": "IC50", "value": 1320, "unit": "nM"}]}, {"compound": "COc1ccc(-n2nc(C(=O)N3CCOCC3)c3c2-c2ccccc2S(=O)(=O)C3)cc1", "note": "[Example 10, 1-(4-methoxyphenyl)-3-(morpholin-4-ylcarbonyl)-1,4-dihydrothiochromeno[4,3-c]pyrazole 5,5-dioxide]", "values": [{"measurement": "IC50", "value": 749, "unit": "nM"}]}, {"compound": "O=C(c1nn(-c2ccccn2)c2c1CS(=O)(=O)c1ccccc1-2)N1CCOCC1", "note": "[Example 11, 3-(morpholin-4-ylcarbonyl)-1-pyridin-2-yl-1,4-dihydrothiochromeno[4,3-c]pyrazole 5,5-dioxide]", "values": [{"measurement": "IC50", "value": 1600, "unit": "nM"}]}, {"compound": "Cn1nc(C(=O)N2CCOCC2)c2c1-c1cccc(F)c1S(=O)(=O)C2", "note": "[Example 14, 6-fluoro-1-methyl-3-(morpholin-4-ylcarbonyl)-1,4-dihydrothiochromeno[4,3-c]pyrazole 5,5-dioxide]", "values": [{"measurement": "IC50", "value": 687, "unit": "nM"}]}, {"compound": "Cn1nc(C(=O)N2CCOCC2)c2c1-c1cc(F)ccc1S(=O)(=O)C2", "note": "[Example 16, 8-fluoro-1-methyl-3-(morpholin-4-ylcarbonyl)-1,4-dihydrothiochromeno[4,3-c]pyrazole 5,5-dioxide]", "values": [{"measurement": "IC50", "value": 2220, "unit": "nM"}]}, {"compound": "O=C(c1nn(-c2ccccc2)c2c1CS(=O)(=O)c1ccc(F)cc1-2)N1CCOCC1", "note": "[Example 17, 8-fluoro-3-(morpholin-4-ylcarbonyl)-1-phenyl-1,4-dihydrothiochromeno[4,3-c]pyrazole 5,5-dioxide]", "values": [{"measurement": "IC50", "value": 987, "unit": "nM"}]}, {"compound": "O=C(c1nn(-c2ccccc2)c2c1CS(=O)(=O)c1c(Br)cccc1-2)N1CCOCC1", "note": "[Example 18]", "values": [{"measurement": "IC50", "value": 494, "unit": "nM"}]}, {"compound": "Cc1ccccc1-n1nc(C(=O)N2CCOCC2)c2c1-c1ccccc1S(=O)(=O)C2", "note": "[Example 19, 1-(2-methylphenyl)-3-(morpholin-4-ylcarbonyl)-1,4-dihydrothiochromeno[4,3-c]pyrazole 5,5-dioxide]", "values": [{"measurement": "IC50", "value": 2280, "unit": "nM"}]}]}
